Patent US6479487B1, “6, 9-disubstituted 2-[trans-(4-aminocyclohexyl)amino] purines” (Aventis Pharmaceuticals Inc., priority 1998, dated 2002)
Several values for one entry are separate records, joined by “and”; a condition that tells them apart may be missing. Equal entries are not always repeated. Structures can show the parent of a compound that is named as a salt. Where two headings read alike, the source gives them in different places.

Legend:
cdk2/cyclin E = molecular target: T1, cdk2/cyclin E (Homo sapiens, UniProt P24941); assay: Cyclin-Dependent Kinase 2 Assay (cdk2/cyclin E, GST-Rb substrate); assay type: biochemical; settings: recombinant cdk2/cyclin E, 10 μM ATP, 30 min at 30° C., several values in a cell = separate determinations, read-out: CDK-2 Inhibition IC50
T1 construct: made in house; host or cells: insect cells (baculovirus co-infection)
Protocol: Substrate: GST-Rb as described above for cdk4/cyclin D1
Assay conditions for cdk2/cyclin E were identical to those for cdk4/cyclin D1 including the substrate. The concentration of recombinant cdk2/cyclin E in the assay was 0.1 μg per 100 μl assay. Incubation was for 30 min at 30° C.

MDA-MB-231 = assay: In vitro tumor cell proliferation, MDA-MB-231; assay type: cell-based, human; settings: sulforhodamine B or CyQUANT assay, many values given with an undefined *, read-out: In vitro Tumor Cell Proliferation (IC50, μM) Breast MDA-MB-231
Procedure, shortened: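 Cells plated overnight at 37 °C, then exposed to drug for 3 days, refed with fresh drug and incubated 4 more days. Read-out by sulforhodamine B staining after TCA fixation; alternatively, CyQUANT after 3-day drug exposure and freezing at −80 °C.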

PC-3 = assay: In vitro tumor cell proliferation, PC-3; assay type: cell-based, human; settings: many values given with an undefined *, read-out: In vitro Tumor Cell Proliferation (IC50, μM) Prostate PC-3
Procedure, shortened: (§1)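 Cells seeded overnight at 37° C, then exposed to drug diluted in medium; at 3 days medium and drug replenished for another 4 days. Growth read by sulforhodamine B staining after TCA fixation; alternatively by CyQUANT, with plates frozen at −80° C after 3 days of drug.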

A549 = assay: In vitro tumor cell proliferation, A549; assay type: cell-based, human; settings: many values given with an undefined *, read-out: In vitro Tumor Cell Proliferation (IC50, μM) Lung A549
Procedure, shortened: as §1

Colo-205 = assay: In vitro tumor cell proliferation, Colo-205; assay type: cell-based; settings: values given with an undefined *, read-out: In vitro Tumor Cell Proliferation (IC50, μM) Colon Colo-205
Procedure, shortened: as §1

cdk4/cyclin D1 = molecular target: T2, cdk4/cyclin D1 (Homo sapiens, UniProt P11802); assay: Cyclin-dependent Kinase 4 Assay (cdk4/cyclin D1, GST-Rb substrate); assay type: biochemical; settings: cdk4/cyclin D1 insect cell lysate, 10 μM ATP, 30 min at 37° C., several values = separate determinations, read-out: CDK4 Inhibition IC50
T2 construct: made in house; host or cells: Sf9 insect cells (Bac-to-Bac baculovirus, pFastBac)
Procedure, shortened: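 Insect-cell lysate of coexpressed cdk4/cyclin D1 (0.1 μg) acts on GST-Rb (0.5 μg) bound to glutathione-Sepharose, in 50 mM HEPES pH 7.5, 10 mM MgCl2, 1 mM EGTA. Reaction runs 30 min at 37 °C, then is stopped by filtration and TNEN washes. Rb phosphorylation read by scintillation counting; IC50 derived.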

MDA-MB-435 = assay: In vitro tumor cell proliferation, MDA-MB-435; assay type: cell-based; settings: values given with an undefined *, read-out: In vitro Tumor Cell Proliferation (IC50, μM) Breast MDA-MB-435
Procedure, shortened: as §1

DMS-114 = assay: In vitro tumor cell proliferation, DMS-114; assay type: cell-based, human; settings: many values given with an undefined *, read-out: In vitro Tumor Cell Proliferation (IC50, μM) Lung DMS-114
Procedure, shortened: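 Human small cell lung carcinoma DMS-114 cells plated overnight, then drug-treated for 3 days, medium and drug renewed, and incubated 4 more days. Growth read by sulforhodamine B staining after TCA fixation; alternatively by CyQUANT after 3 days' drug exposure and freezing at −80 °C.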

HT-29 = assay: In vitro tumor cell proliferation, HT-29; assay type: cell-based, human; settings: many values given with an undefined *, read-out: In vitro Tumor Cell Proliferation (IC50, μM) Colon HT-29
Procedure, shortened: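 HT-29 cells seeded overnight at 37° C, then exposed to drug for 3 days, refed with fresh drug-containing medium for 4 more days. Proliferation read by sulforhodamine B staining after TCA fixation; alternatively by CyQUANT after freezing plates at −80° C following 3 days' drug exposure.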

DU145 = assay: In vitro tumor cell proliferation, DU145; assay type: cell-based, human; settings: many values given with an undefined *, read-out: In vitro Tumor Cell Proliferation (IC50, μM) Prostate DU145
Procedure, shortened: as §1

[1] = Homo sapiens, MDA-MB-231, MDA-MB-231
[2] = Homo sapiens, COLO 205, Colo-205
[3] = Homo sapiens, MDA-MB-435, MDA-MB-435

T2 sequence (P11802 whole entry): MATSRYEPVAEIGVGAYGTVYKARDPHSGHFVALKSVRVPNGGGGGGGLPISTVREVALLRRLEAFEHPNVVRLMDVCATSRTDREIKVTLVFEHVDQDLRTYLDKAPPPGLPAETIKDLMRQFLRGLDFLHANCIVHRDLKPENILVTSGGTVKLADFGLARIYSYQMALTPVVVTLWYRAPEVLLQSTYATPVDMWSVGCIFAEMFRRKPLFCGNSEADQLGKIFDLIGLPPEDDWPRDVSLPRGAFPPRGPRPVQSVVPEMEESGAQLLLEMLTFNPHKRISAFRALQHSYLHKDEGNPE
T2 sequence (P24385 whole entry partner): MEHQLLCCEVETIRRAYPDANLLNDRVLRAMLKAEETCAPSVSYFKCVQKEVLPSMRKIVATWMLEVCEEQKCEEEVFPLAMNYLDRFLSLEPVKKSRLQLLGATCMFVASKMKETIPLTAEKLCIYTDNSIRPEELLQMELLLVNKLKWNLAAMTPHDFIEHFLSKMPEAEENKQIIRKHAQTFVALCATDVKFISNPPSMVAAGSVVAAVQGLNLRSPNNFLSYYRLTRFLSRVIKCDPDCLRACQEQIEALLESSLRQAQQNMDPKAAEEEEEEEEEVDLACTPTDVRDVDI

| SMILES | IC50 (cdk2/cyclin E) | IC50 (MDA-MB-231; [1]) [µM] | IC50 (MDA-MB-231; MDA-MB-231, trihydrochloride) [µM] | IC50 (PC-3; PC-3, trihydrochloride) [µM] | IC50 (A549; A549, trihydrochloride) [µM] | IC50 (A549; Homo sapiens, A549, A549) [µM] | IC50 (Colo-205; Colo-205, trihydrochloride) [µM] | IC50 (Colo-205; [2]) [µM] | IC50 (cdk4/cyclin D1) | IC50 (MDA-MB-435; [3]) [µM] | IC50 (DMS-114; DMS-114, trihydrochloride) [µM] | IC50 (DMS-114; Homo sapiens, DMS-114, DMS-114) [µM] | IC50 (HT-29; HT-29, trihydrochloride) [µM] | IC50 (HT-29; Homo sapiens, HT-29, HT-29) [µM] | IC50 (DU145; DU145, trihydrochloride) [µM] | IC50 (DU145; Homo sapiens, DU-145, DU145) [µM] | IC50 (PC-3; Homo sapiens, PC-3, PC-3) [µM] | IC50 (MDA-MB-435; MDA-MB-435, trihydrochloride) [µM] | further results |
| --- | --- | --- | --- | --- | --- | --- | --- | --- | --- | --- | --- | --- | --- | --- | --- | --- | --- | --- | --- |
| N[C@H]1CC[C@H](Nc2nc(NC3CCN(Cc4ccc(F)cc4)CC3)c3ncn(C4CCCC4)c3n2)CC1 [Example 147-l, 2-[Trans-(4-aminocyclohexyl)amino]-6-[4-[1-(4-fluorobenzyl)]piperidinylamino]-9-cyclopentylpurine trihydrochloride] | 260 nM and 170 nM and 280 nM | 0.33 | 0.29 | 0.41 | 0.19 | 0.26 | 0.19 | 0.26 | 2000 nM and 2700 nM and 1300 nM | 0.46 | 0.43 | 0.48 | 0.4 | 0.37 | 0.29 | 0.3 | – | – | – |
| N[C@H]1CC[C@H](Nc2nc(NC3CCN(Cc4ccc5ccccc5c4)CC3)c3ncn(C4CCCC4)c3n2)CC1 [Example 147-p, 2-[Trans-(4-aminocyclohexyl)amino]-6-[4-[1-(2-naphthyl)methyl]piperidinylamino]-9-cyclopentylpurine trihydrochloride] | 300 nM and 110 nM and 360 nM | 0.57 | 0.6 | 0.66 | 0.34 | 0.39 | 0.48 | 0.45 | 3100 nM and 3900 nM | 0.59 | 0.68 | 0.91 | 0.72 | 0.71 | – | 0.54 | 0.46 | 0.68 | – |
| N[C@H]1CC[C@H](Nc2nc(NNc3ccccc3F)c3ncn(C4CCCC4)c3n2)CC1 [Example 11, 2-[Trans-(4-aminocyclohexyl)amino]-6-[2-fluorophenylhydrazino]-9-cyclopentylpurine dihydrochloride] | 100 nM | 5 | – | – | – | 4.5 | – | 6.5 | 8900 nM and 5800 nM | – | – | 6.8 | – | 6.5 | – | 4.6 | 3.6 | – | IC50 (MDA-MB-231; MDA-MB-231, dihydrochloride): 6.7 µM; IC50 (A549; A549, dihydrochloride): 3.4 µM; IC50 (Colo-205; Colo-205, dihydrochloride): 5.2 µM; IC50 (MDA-MB-435; MDA-MB-435, dihydrochloride): 10 µM; IC50 (DMS-114; DMS-114, dihydrochloride): 4.9 µM; IC50 (HT-29; HT-29, dihydrochloride): 7.8 µM; IC50 (DU145; DU145, dihydrochloride): 4.7 µM |
| N[C@H]1CC[C@H](Nc2nc(NC3CCN(Cc4ccc(F)cc4Cl)CC3)c3ncn(C4CCCC4)c3n2)CC1 [Example 147-t, 2-[Trans-(4-aminocyclohexyl)amino]-6-[4-[1-(2-chloro-4-fluorobenzyl)]piperidinylamino]-9-cyclopentylpurine trihydrochloride] | 250 nM and 160 nM and 340 nM | 0.37 | – | 0.45 | 0.28 | 0.3 | 0.36 | – | 2200 nM and 1700 nM | 0.41 | 0.46 | 0.71 | 0.48 | 0.42 | 0.38 | 0.33 | 0.37 | 0.69 | – |
